US8106003B2, “Peptides and methods for the treatment of inflammatory disease” (Auckland Uniservices Limited, priority 2004, dated 2012)
Entries after “also recorded” stand apart in the source; their conditions may differ. Non-standard residues stand in square brackets, D forms with d. Residues, ends and D or L forms follow the SMILES beside them. No end group written: not given here. *: point of attachment. Biotin = O=C1N[C@H]2[C@H](CS[C@H]2CCCCC(=O)*)N1

Key:
[1] = system: adhesion of H9 cells to MAdCAM-1; experiment: Cell adhesion assay: H9 cells to MAdCAM-1-Fc; format: cell-based, human; settings: Mn++ or PMA-activated H9 cells
Protocol: (§1) Cell adhesion assays. Lab-Tek 16-well glass slides (Nunc) or flat-bottomed 96-well maxisorb plates (Nunc) were coated with purified mouse MAdCAM-1-Fc, human VCAM-1-Fc, and human ICAM-1-Fc (70 to 100 μl of 5 to 10 μg/ml), and incubated at 4° C. overnight. Slides were washed once with PBS, and blocked with FCS for 2 h at room temperature. Slides were washed with Hanks balanced salt solution (HBSS) containing 10 mM Hepes. Cells were either left unlabeled or labeled with the fluorescent dye chloromethyl fluorescein diacetate (CMFDA; Molecular Probes, Oregon), and activated by resuspension in HBSS containing 10 mM Hepes supplemented with 2 mM Ca^++ and 2 mM Mn^++. Cells were alternatively activated with 50 ng/ml PMA, or by incubating with AlF4^− (10 mM NaF and 40 µM AlCl3). They were preincubated with peptides at different concentrations for 10 min at room temperature, checked for viability by trypan blue exclusion, and then 10^6 cells added to each coated well and left to adhere for 30 min at room temperature. Non-adherent unlabeled cells in 16-well glass slides were removed by twice dipping slides gently into PBS, and adherent cells fixed in PBS containing 2% (v/v) glutaraldehyde for at least 3 h. The number of adherent cells was determined by counting the number of adherent cells in four independent fields at 100× magnification under an inverted microscope. Alternatively, non-adherent CMFDA-labeled cells in 96-well plates were removed by inverse centrifugation at 70×g for 5 min into 50 mM Tris pH 7.5, 150 mM NaCl, 2 mM MnCl2, followed by gentle washing with a pipette. The fluorescence of CMFDA-labeled adherent cells was measured using a VICTOR 1420 multilabel counter (Wallac). Unless otherwise stated, experiments were repeated in triplicate, using duplicate wells.

[2] = system: adhesion of H9 cells to VCAM-1; experiment: Cell adhesion assay: H9 cells to VCAM-1-Fc; format: cell-based, human; settings: Mn++ or PMA-activated H9 cells
Protocol: as §1

TK-1 T cells [3] = experiment: Peptide internalization and visualization in TK-1 cells; format: cell-based, mouse; settings: confocal microscopy; for uptake of penetratin-fused peptide into TK-1 cells: 50 μM peptide, 1 h, FITC-streptavidin; for internalization of R9-fused peptide by TK-1 cells: 30 min incubation
Protocol: Peptide internalization and visualization. […] After washing with PBS, cells were resuspended into PBS/1% FCS and cytocentrifuged onto glass slides. Cytospin smears were fixed with 4% paraformaldehyde in PBS for 15 min at room temperature, washed twice with PBS and permeabilized in PBS containing 0.2% Triton X-100 for 10 min. Biotinylated peptide was detected by incubating the slides with streptavidin-FITC (Sigma, Mo.), and visualized using a Leica TCS 4D confocal laser microscope. Images were processed using Leica Scanware™ 4.2 A software and Adobe Photoshop 5.0.

[4] = system: kinase(s) in TK-1 cell lysate; experiment: Assay to test whether β7 cytoplasmic domain peptides bind a kinase(s); format: biochemical, mouse; settings: lysates of unactivated or AlF4−-activated TK-1 cells
Protocol: Assay to test whether β7 cytoplasmic domain peptides bind a kinase(s). TK-1 cells (3×10^6) were lysed in 1 ml of lysis buffer, and centrifuged at 12,000×g for 10 min at 4° C. Supernatants were precleared with 10 μl of Sepharose and then 10 μl of streptavidin-Sepharose. Cytoplasmic domain peptides were screened for their ability to associate with a kinase in lysates of TK-1 cells that were either left unactivated or had been activated with AlF4^−. Biotinylated peptides immobilized on 5 μl of streptavidin-Sepharose were incubated with 1 ml of lysis buffer containing 1 μl of cell lysate for 2 h at 4° C. with gentle shaking. The beads were washed thrice with ice-cold lysis buffer, once with kinase buffer, and were incubated with 30 μl kinase buffer and 0.5 to 1 μCi γ-ATP for 20 min at 30° C. Beads were washed five times, and radioactivity measured in a scintillation counter.

[5] = system: α4β7-mediated adhesion of TK-1 cells to MAdCAM-1; experiment: Cell adhesion assay: TK-1 cells to immobilised MAdCAM-1-Fc; format: cell-based, mouse; settings: for inhibition of TK-1 cell adhesion to MAdCAM-1: Mn++, PMA or AlF4−-activated cells preincubated with increasing concentrations of peptide
Protocol: as §1

[6] = system: α4β7-mediated adhesion of TK-1 cells to VCAM-1; experiment: Cell adhesion assay: TK-1 cells to immobilised VCAM-1-Fc; format: cell-based, mouse; settings: for inhibition of TK-1 cell adhesion to VCAM-1: Mn++ or PMA-activated cells preincubated with increasing concentrations of peptide; for inhibition of adhesion of CMFDA-labeled TK-1 cells to immobilized human VCAM-1-Fc: R9-fused L and D analogs of YDRREY, fluorescence readout
Protocol: as §1

[7] = system: α4β7-mediated adhesion of TK-1 cells to RGD polymer; experiment: Cell adhesion assay: TK-1 cells to fibronectin-like polymer (RGD); format: cell-based, mouse; settings: for inhibition of TK-1 cell adhesion to RGD polymer: Mn++ or PMA-activated cells preincubated with increasing concentrations of peptide
[8] = system: MAdCAM-1-induced clustering of α4β7 on TK-1 cells; experiment: Confocal microscopy analysis of receptor clustering; format: cell-based, mouse; settings: AlF4−-activated TK-1 cells, peptide 50 μM
Protocol: Confocal microscopy analysis of receptor clustering. TK-1 cells were incubated in the presence or absence of peptides (50 μM) for 1 h at room temperature, and cells were activated for 30 min at room temperature in HBSS containing 2 mM Ca++ and AlF4^−. Cells were incubated with MAdCAM-1-coated microspheres for 1 h on ice. They were washed with PBS containing 0.02% sodium azide, and fixed in 4% (w/v) paraformaldehyde in PBS for an additional 1 h. They were then stained with FITC-conjugated anti-β7 subunit M293 mAb, washed and fixed as above. Cells were mixed 1:1 with Citifluor glycerol/PBS solution, mounted on slides, and analyzed using a Leica TCS4D confocal laser scanning microscope equipped with an external argon-krypton laser (488 nm). Images were digitally recorded and printed on an Epson colour printer using Microsoft Power Point software.

[9] = system: TK-1 cells adhered to MAdCAM-1 and VCAM-1; experiment: Detachment of already adhered TK-1 cells (established focal adhesions); format: cell-based, mouse; settings: Mn++ and PMA-activated cells, incubated 1 h with peptide after adhesion
Protocol: (§2) FIG. 5: Illustrates peptide β7-2 blocks ligand-induced clustering of α4β7 at the cell surface, but cannot disrupt established focal adhesions. (A) Peptide β7-2 blocks ligand-induced clustering of α4β7. TK-1 cells were preincubated with either the β7-2 or β7-3 peptides, or no peptide, and activated with AlF4^−. Ligand-induced clustering of α4β7 was induced by addition of MAdCAM-1-Fc, and cluster formation after 30 min was determined by staining cells with FITC-conjugated M293 mAb (anti-β7 subunit), followed by confocal microscopy. […] TK-1 (B, D) and H9 (C, E) cells activated with Mn^++, and PMA were adhered to glass slides coated with MAdCAM-1-Fc (B, C), and VCAM-1-Fc (D, E), and then incubated for 1 h with peptide β7-2. Cells bound were counted, and represent the mean±SD from four fields. Experiments were performed in triplicate.
(§3) Cell adhesion assays. Lab-Tek 16-well glass slides (Nunc) or flat-bottomed 96-well maxisorb plates (Nunc) were coated with purified mouse MAdCAM-1-Fc, human VCAM-1-Fc, and human ICAM-1-Fc (70 to 100 μl of 5 to 10 μg/ml), and incubated at 4° C. overnight. […] The number of adherent cells was determined by counting the number of adherent cells in four independent fields at 100× magnification under an inverted microscope. […] The fluorescence of CMFDA-labeled adherent cells was measured using a VICTOR 1420 multilabel counter (Wallac). […]

[10] = system: H9 cells adhered to MAdCAM-1 and VCAM-1; experiment: Detachment of already adhered H9 cells (established focal adhesions); format: cell-based, human; settings: Mn++ and PMA-activated cells, incubated 1 h with peptide after adhesion
Protocol: as §2, §3

TK-1 T cells [11] = format: cell-based, mouse
[12] = system: tyrosine phosphorylation of β7cyt; experiment: In vitro kinase assay of GST-β7cyt fusion protein with H9 cell lysate; format: biochemical, human; settings: genistein at 20 μM; H9 cell lysate 1:100
Protocol: Phosphorylation of recombinant GST fusion protein encoding β7cyt. H9 cells (5×10^7) were lysed at 4° C. in 1 ml of lysis buffer (10 mM Tris pH 7.4, 50 mM NaCl, 50 mM NaF, 1 mM sodium orthovanadate, 300 μg/ml PMSF, 20 μg/ml aprotinin, 10 μg/ml leupeptin, and 1% NP-40), centrifuged, and the supernatant precleared with GST-Sepharose. A GST fusion protein (50 μg) encoding the β7 subunit cytoplasmic domain bound to glutathione-Sepharose was incubated with trace amounts (1:100 dilution) of precleared lysate for 2 h at 4° C. The beads were washed thrice with lysis buffer and thrice with kinase buffer (10 mM Tris pH 7.4, 50 mM NaCl, 5 mM MgCl2, 5 mM MnCl2, 0.1 mM Na3VO4), and incubated in 30 μl kinase buffer containing 0.5 μCi [^32P] γATP for 20 min at 30° C. The sample was subjected to SDS-PAGE on a 10% acrylamide gel. The gel was stained with Coomassie Blue to visualize the GST fusion protein, and treated with 1 M KOH at 55° C. for 2 h to remove alkali-labile phosphate moieties on serine and threonine. The gel was dried, and subjected to autoradiography.

[13] = system: adhesion of H9 cells to RGD polymer; experiment: Cell adhesion assay: H9 cells to RGD polymer; format: cell-based, human; settings: data not shown

Row | Molecule | inhibition of H9 cell adhesion to MAdCAM-1 [1] | inhibition of H9 cell adhesion to VCAM-1 [2] | uptake of penetratin-fused peptide into TK-1 cells (TK-1 T cells [3]) | formation of a phosphorylated complex (kinase association / phosphorylation of immobilized peptide) [4] | inhibition of TK-1 cell adhesion to MAdCAM-1 [5] | inhibition of TK-1 cell adhesion to VCAM-1 [6] | inhibition of TK-1 cell adhesion to RGD polymer [7] | other results
1 | QLNWKQDSNPLYKSAITTT [β7-4] | completely ineffective | completely ineffective | taken up | formed a phosphorylated complex | – | – | – | –
2 | RLSVEIYDRREY [β7-2] | blocked | blocked | taken up | – | abrogated | abrogated | abrogated | blockade of TK-1 cell-binding to MAdCAM-1 ([5]; 100 μm of peptide): almost completely blocked; blockade of TK-1 cell-binding to VCAM-1 ([6]; 100 μm of peptide): almost completely blocked; reduction in TK-1 cell binding to the RGD polymer ([7]; 100 μm of peptide): 50%; blockade of MAdCAM-1-induced clustering (redistribution) of α4β7 at the cell surface [8]: completely blocked; also recorded: blocks; detachment of TK-1 cells already adhered to MAdCAM-1 and VCAM-1 [9]: not able to detach; also recorded: cannot disrupt focal adhesions to detach cells; detachment of H9 cells already adhered to MAdCAM-1 and VCAM-1 [10]: not able to detach; also recorded: cannot disrupt focal adhesions to detach cells
3 | N=C(N)NCCC[C@@H](NC(=O)CCCC[C@@H]1SC[C@@H]2NC(=O)N[C@@H]21)C(=O)N[C@H](CCCNC(=N)N)C(=O)N[C@H](CCCNC(=N)N)C(=O)N[C@H](CCCNC(=N)N)C(=O)N[C@H](CCCNC(=N)N)C(=O)N[C@H](CCCNC(=N)N)C(=O)N[C@H](CCCNC(=N)N)C(=O)N[C@H](CCCNC(=N)N)C(=O)N[C@H](CCCNC(=N)N)C(=O)N[C@H](Cc1ccc(O)cc1)C(=O)N[C@H](CC(=O)O)C(=O)N[C@H](CCCNC(=N)N)C(=O)N[C@H](CCCNC(=N)N)C(=O)N[C@H](CCC(=O)O)C(=O)N[C@H](Cc1ccc(O)cc1)C(=O)O [β7-13] (Biotin-[dR][dR][dR][dR][dR][dR][dR][dR][dR][dY][dD][dR][dR][dE][dY]-OH; N-terminus and C-terminus assumed) | – | – | – | – | – | – | – | inhibition of adhesion of CMFDA-labeled TK-1 cells to immobilized human VCAM-1-Fc [6]: inhibit; inhibition of adhesion of CMFDA-labeled TK-1 cells to immobilized human VCAM-1-Fc ([6]; listed as D-amino acid form): as equally potent as the L-enantiomer; internalization of R9-fused peptide by TK-1 cells (TK-1 T cells [3]): internalized; cytotoxic concentration (TK-1 T cells [11]; 2 h): exceeding 50 μM; cell death (TK-1 T cells [11]; at 100 μM, data not shown): 50%
4 | β7-10: peptide β7-12 truncated to remove tyrosine 735 (SEQ ID NO. 26), fused to r9 (Biotin-[dR][dR][dR][dR][dR][dR][dR][dR][dR]DRREY) | – | – | – | formed a phosphorylated complex | not able to inhibit | – | – | –
5 | O=c1c(-c2ccc(O)cc2)coc2cc(O)cc(O)c12 [genistein] | – | – | – | – | – | – | – | blockade of phosphorylation of β7cyt [12]: completely blocked
6 | β7-7: β7cyt residues 729-735 (SEQ ID NO. 24) fused to penetratin (Biotin-RQIKIWFQNRRMKWKKRLSVEIY; not fully specified) | – | – | taken up | did not form a phosphorylated complex | completely ineffective | completely ineffective | completely ineffective | –
7 | β7-11: peptide β7-12 truncated to remove tyrosine 740 (SEQ ID NO. 27), fused to r9 (Biotin-[dR][dR][dR][dR][dR][dR][dR][dR][dR]YDRRE) | – | – | – | formed a phosphorylated complex | not able to inhibit | – | – | –
8 | YDRREY [β7-12] | – | – | – | – | inhibited | – | – | inhibition of adhesion of CMFDA-labeled TK-1 cells to immobilized human VCAM-1-Fc [6]: inhibit; internalization of R9-fused peptide by TK-1 cells (TK-1 T cells [3]): rapidly internalized
9 | YDRREY [β7-8] (Biotin-RQIKIWFQNRRMKWKKYDRREY; not fully specified) | also blocked | also blocked | taken up | formed a phosphorylated complex | retained the ability to block | retained the ability to block | retained the ability to block | inhibition of H9 cell adhesion to RGD polymer [13]: also blocked
10 | β7-5: extreme C-terminal control peptide of β7cyt (SEQ ID NO. 23) fused to penetratin (Biotin-RQIKIWFQNRRMKWKKTTTINPRFQEADSPTL; not fully specified) | completely ineffective | completely ineffective | taken up | did not form a phosphorylated complex | – | – | – | –
